In patent US20230391778A1, “INDOLIN-2-ONE OR PYRROLO -PYRIDIN -2 -ONE DERIVATIVES” (Hoffmann-La Roche Inc., priority 2014, published 2023):

How the values were obtained:
[1] = tested on: L-687,414-induced hyperlocomotion; experiment: L-687,414-induced hyperlocomotion; assay type: in vivo, mouse; settings: Mus musculus; Dose ip 30 mg/kg, mice, 50 mg/kg s.c. L-687,414
Method: The described compounds of formula I reduce L-687,414-induced hyperlocomotion. This was assessed by using a computerized Digiscan 16 Animal Activity Monitoring System (Omnitech Electronics, Columbus, Ohio) to quantify locomotor activity. Animals were kept under a 12 h light/dark cycle and experiments were performed during the light period. Each activity monitoring chamber consisted of a Plexiglas box (41×41×28 cm; W×L×H) with sawdust bedding on the floor surrounded by invisible horizontal and vertical infrared sensor beams. The test boxes were divided by a Plexiglas cross providing each mouse with 20×20 cm of moving space. Cages were connected to a Digiscan Analyzer linked to a computer that constantly collected the beam status information. Records of photocell beam interruptions for individual animals were taken every 5 min over the duration of the experimental session and the sum of the first 6 periods was used as the final parameter. At least 8 mice were used in each treatment group. Compounds were administered either p.o. 15 min before a s.c. injection of 50 mg/kg of L-687,414, or i.p. at the same time as a s.c. injection of 50 mg/kg of L-687,414. Mice were then transferred from their home cage to the recording chambers for a 15-min habituation phase allowing free exploration of the new environment. Horizontal activity was then recorded for a 30-min time period. The % inhibition of L-687,414-induced hyperlocomotion was calculated according to the equation:
((Veh+L-687,414 horizontal activity−drug+L-687,414 horizontal activity)/Veh+L-687,414 horizontal activity)×100
ID50 values, defined as doses of each compound producing 50% inhibition of L-687,414-induced hyperlocomotion, were calculated by linear regression analysis of a dose-response data using an Excel-based computer-fitting program.
As data was not presupposed to be normally distributed, groups treated with test compounds were statistically compared with the control (vehicle-treated) group using one-tailed Mann Whitney U tests. In statistics, the Mann-Whitney U test (also called the Mann-Whitney-Wilcoxon (MWW) or Wilcoxon rank-sum test) is a non-parametric statistical hypothesis test for assessing whether one of two samples of independent observations tends to have larger values than the other. It is one of the most well-known non-parametric significance tests. […] P values given in table 1 are one-tailed since only decreases in locomotion were expected and tested for (Mann, H. B., Whitney, D. R. (1947), “On a Test of Whether one of Two Random Variables is Stochastically Larger than the Other”, Annals of Mathematical Statistics, 18 (1), 50-60).

mice = experiment: SmartCube behavioral signature similarity analysis; assay type: in vivo, mouse; design: key to discrimination rate vs Clozapine (similarity analysis) / discrimination rate vs Olanzapine (similarity analysis) / discrimination rate vs Risperidone (similarity analysis): fraction; 0.5 = zero distinguishability between the two drugs
Excerpt: In addition to the reversal of L-687,414 induced hyperlocomotion experiment as described above, some compounds of the present invention have been tested in SmartCube®, an automated system in which the behaviors of compound-treated mice in response to multiple challenges are captured by digital video and analyzed with computer algorithms (Roberds et al., Frontiers in Neuroscience, 2011, Vol. 5, Art. 103, 1-4; Vadim Alexandrov, Dani Brunner, Taleen Hanania, Emer Leahy Eur. J. Pharmacol. 2015, 750, 82-99). In this way, the neuro-pharmacological effects of a test compound can be predicted by similarity to major classes of compounds, such as antipsychotics, anxiolytics and antidepressants.
As mentioned above, some compounds have been tested in SmartCube©, an analytical system developed by PsychoGenics Inc.
SmartCube® was used to compare the behavioral signature of a test compound to a database of behavioral signatures obtained from a large set of clinically approved reference drugs, grouped per indications. In this way, the neuro-pharmacological effects of a test compound can be predicted by similarity to major classes of compounds, such as antipsychotics, anxiolytics and antidepressants. This approach is ideally suited to screen collections of existing drugs or drug candidates with previously unknown neuropharmacology, which could expedite the development of new and unexpected treatments for psychiatric disorders.
Some compounds of the present invention were injected i.p. at different doses 15 minutes before the test. At least 8 mice were used in each treatment group. Digital videos of the subjects were processed with computer vision algorithms to extract over 2000 dependent measures including frequency and duration of many different behavioral states. The results of the classifications are presented as bar charts for each compound and dose (mg/kg), the Y-axis indicates the relative probability that the test compound will show efficacy in the specific CNS indication.
For comparison, the behavioral signatures of the atypical antipsychotics clozapine, olanzapine and risperidone are shown in FIG. 2. Compounds of the present invention show similar signatures to those of atypical antipsychotics. An independent analysis was performed on the unclassified data to determine the similarity of the example compounds to active doses of known atypical antipsychotics. For this analysis, we use discrimination rate as the measure of separability between the two drugs, i.e. one drug's “distinguishability” from another. A rate equal to 50% (or 0.5) corresponds to zero distinguishability. […] In most cases, the example compounds show a similarity to risperidone, clozapine and olanzapine with a discrimination rate of <0.70.

mouse ENT-1 transporter = target: T1, mouse ENT-1 transporter (Mus musculus, UniProt Q9JIM1); experiment: Measure of adenosine transport activity (ENT1 adenosine uptake inhibition); assay type: cell-based; settings: stable cells expressing mouse ENT-1, [2,8-3H]-adenosine 6 nM, 20 min
T1 construct: expressed in transfected cells
T1 sequence (Q9JIM1 1-460): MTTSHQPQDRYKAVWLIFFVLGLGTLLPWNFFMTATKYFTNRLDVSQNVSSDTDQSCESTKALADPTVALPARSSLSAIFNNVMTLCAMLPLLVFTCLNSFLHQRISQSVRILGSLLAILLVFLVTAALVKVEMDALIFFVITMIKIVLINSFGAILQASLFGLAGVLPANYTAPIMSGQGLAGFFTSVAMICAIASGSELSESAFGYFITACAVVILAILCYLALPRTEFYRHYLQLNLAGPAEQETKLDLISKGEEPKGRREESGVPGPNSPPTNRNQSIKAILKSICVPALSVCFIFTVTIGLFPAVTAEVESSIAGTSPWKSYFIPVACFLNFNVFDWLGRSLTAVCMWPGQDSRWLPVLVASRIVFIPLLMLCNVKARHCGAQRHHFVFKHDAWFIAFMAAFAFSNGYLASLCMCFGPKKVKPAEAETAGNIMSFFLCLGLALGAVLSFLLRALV
Method in brief: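 Stable mouse ENT-1 cells, 60,000/well, washed into pH 7.4 Hepes-Tris uptake buffer and incubated at RT with compound (1% DMSO final) for 20 min with shaking. Non-specific uptake defined with 10 μM NBTI; cell-associated radioactivity counted by scintillation after ice-cold washes.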

[2] = 5 mg/kg i.p., SmartCube, rate of 0.70 or lower = similar

## Cc1ncc(-c2ccc3c(c2)N(c2cnc(C)nc2)C(=O)C3(C)C)cn1 [Example 9, 3,3-Dimethyl-1,6-bis(2-methylpyrimidin-5-yl)indolin-2-one]
[1]
  inhibition in vivo at 30 mg/kg: 93.2%
mice
  SmartCube similarity to major drug classes: similarity to atypical antipsychotics
mice; [2]
  discrimination rate vs Clozapine (similarity analysis): 0.65
  discrimination rate vs Olanzapine (similarity analysis): 0.66
  discrimination rate vs Risperidone (similarity analysis): 0.69
Mouse ENT-1 transporter
  IC50: 174 nM
